We go through 2 compounds from patent US8097646B2, “Ophthalmic preparation containing menthyl ester of indomethacin” (AlphaRx, Inc., priority 2005, dated 2012).

For data set [1] the following is noted: cited from earlier work.
Data set [2] in a line: Solubility of the substance in water and solvents. In kind it is physicochemical. The procedure:
MEI is a slightly yellow crystalline substance with a melting point of 86-90° C. […] The NMR, mass-spectrometry and FT-IR-spectrum results were: […]

Another data set relates to eye. Kind of data set: Comparison of ocular irritation levels, one drop onto the eye of volunteers (Example 10). In kind it is in vivo, healthy volunteers. The settings on record: ophthalmic formulation comprising MEI, volunteers n=3. How it is done: The ocular irritation of MEI in an ophthalmic formulation as compared with an indomethacin-containing ophthalmic preparation has been tested in 3 healthy volunteers. One drop (40-50 mcl) of the tested formulations (0.25% of MEI (as per Example 5-9), 0.1% Indocollyre®, and sterile saline as the control) was placed onto the eye of each volunteer using an appropriate dropper. The interval between sample applications was at least 24 hours The comparative irritation for MEI, indomethacin and other NSAIDs (Indocollyre®) in ophthalmic formulations is set out in Table 4 (volunteers data, n=3): The irritation scale in the above table ranges from 0-10, with 0 corresponding to no burning or itching, and 10 corresponding to extremely severe burning or itching.

The subject of a further data set is carrageenan paw edema. Kind of data set: Carrageenan paw edema model (Example 12, FIG. 3). The class given is in vivo. The settings on record: intraperitoneally administrated, rats n=4, 1% carrageenan into hind paw. The procedure: FIG. 3 is a graph illustrating the comparative anti-inflammatory activity of indomethacin and MEI in a carrageenan paw edema model (rats, n=4) as described in Example 12.
FIG. 3 represents the anti-inflammatory activity of MEI in a carrageenan model. Inflammation in rats (n=4) was caused by injection of 100 microliters of sterile 1% carrageenan solution into a hind paw, originating local edema development with maximum development at 3-4 hours after administration. The contaralateral paw was injected with 100 microliters of saline and used as control. Paw volumes were measured by plethysmometry, (Ugo Basil Plethysmometer, Italy) and the calculated difference in paw volumes indicated the severity of inflammation.

A short description of data set [3]: Pharmacokinetics of MEI in rats after intraperitoneal administration (Example 11, FIG. 2). The class given is in vivo. The settings on record: 20 mg/kg intraperitoneally, submicron emulsion (Example 6), Wistar rats. The procedure:
FIG. 2 is a graph illustrating the pharmacokinetics of MEI in Wistar rats after intraperitoneal IP) administration (20 mg/kg, Example 6) as described in Example 11.

For `COc1ccc2c(c1)c(CC(=O)O)c(C)n2C(=O)c1ccc(Cl)cc1` [Indomethacin, 1-(4-Chlorobenzoyl)-5-Methoxy-2-methyl-1H-indole-3-acetic acid], the “pH above which the substance is unstable” value in data set [1] was “greater than 6.0”.

Take `COc1ccc2c(c1)c(CC(=O)OC1CC(C)CCC1C(C)C)c(C)n2C(=O)c1ccc(Cl)cc1` (centres unmarked) [MEI, Menthyl ester of indomethacin]: in data set [2] (organic solvents), the “Solubility in alcohol, methylene chloride and chlorophorm, ethyl acetate, glycerides and other organic solvents” value is given as “freely soluble”. Also, the “Solubility in propylene glycol and polyethylene glycol (PEG)-400” value in data set [2] (propylene glycol, PEG-400) is given as “poorly soluble”. Further, in data set [2] (water), the Solubility in water entry is reported as “insoluble”. Besides, in the data set with eye, the “Irritation compared with indomethacin in solution” value was “significantly lower irritation than indomethacin in solution”. In addition, the “Anti-inflammatory activity (difference in paw volumes)” value in the data set on carrageenan paw edema was “high level of anti-inflammatory activity”. In data set [3], the “Level of the parent substance (MEI itself)” value is “decreases rapidly”; the “Metabolism of MEI and release of indomethacin” value was “rapidly metabolizes and releases indomethacin for a prolonged period”.
